The source of these data is patent US7223759B2, “Antibacterial 3,5-diaminopiperidine-substituted aromatic and heteroaromatic compounds” (Anadys Pharmaceuticals, Inc., priority 2003, dated 2007).

By MIC is commonly meant the least concentration at which growth counts as inhibited.

The first test relates to Escherichia coli (ATCC25922) or Staphylococcus aureus (ATCC25923). The test is described as follows: Antibacterial MIC, microdilution method in Mueller-Hinton medium. It counts as cell-based. Conditions: Escherichia coli, 18 h, MIC in E. coli or S. aureus; two-fold serial dilutions 64 to 0.5 μg/ml in duplicate; 18 hours of incubation at 35° C.; read-out: Potency (MIC). Put shortly: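 Read after 18 h incubation at 35° C, MIC is the lowest compound level that blocked growth. Compounds were tested in duplicate over 64–0.5 μg/ml two-fold dilutions using Mueller-Hinton microdilution per NCCLS standard.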
On the technique in general: Dilution methods test growth across graded concentrations, often in twofold steps.
As for `N[C@@H]1C[C@H](N)CN(c2nc(Nc3ccc(C(=O)Nc4ccccc4)cc3)nc(N3C[C@H](N)C[C@H](N)C3)n2)C1` [N-(4-phenylcarbamoyl-phenyl)-4,6-Bis-((3R,5S)-3,5-diamino-piperidin-1-yl)-[1,3,5]triazine-2-amine], the MIC was over 64 µg/mL. For the molecule `Cc1ccc(C(=O)Nc2ccc(Nc3nc(N4CCCCC4)nc(N4CCCC4)n3)cc2O)cc1.Cl` [drawing 244, N-{4-[4-((3R,5S)-3,5-Diamino-piperidin-1-yl)-6-((3R,4S)-3,4-dihydrooxy-pyrrolidin-1-yl)-[1,3,5]triazin-2-ylamino]-2-hydroxy-phenyl}-4-methyl-benzamide], the MIC was over 64 µg/mL. Take `Cc1cc(NC(=O)c2cc3cccc(O)c3cc2O)ccc1Nc1nc(N2C[C@H](N)C[C@H](N)C2)nc(N2C[C@H](N)C[C@H](N)C2)n1` [N-{4-[(3,5-dihydroxy-naphthalene-2-carbonyl)-amino]-2-methyl-phenyl}-4,6-Bis-((3R,5S)-3,5-diamino-piperidin-1-yl)-[1,3,5]triazine-2-amine]: the MIC was under 64 µg/mL. Same read-out and setting: the value for `N[C@@H]1C[C@H](N)CN(c2nc(Nc3ccccc3S(N)(=O)=O)nc(N3C[C@H](N)C[C@H](N)C3)n2)C1` [N-(2-sulfamoyl-phenyl)-4,6-Bis-((3R,5S)-3,5-diamino-piperidin-1-yl)-[1,3,5]triazine-2-amine] was over 64 µg/mL; that for `Cl.O=C(Oc1ccccc1)c1ccc(Nc2cc(N3CCCCC3)cc(N3CCCCC3)c2)cc1O` [4-[4-((3S,5R)-3,5-Diamino-piperidin-1-yl)-6-((R)-3-hydroxy-piperidin-1-yl)-[1,3,5]triazin-2-ylamino]-2-hydroxy-benzoicacidphhenylester] was under 64 µg/mL; that for `Cc1cc(=O)oc2cc(Nc3nc(N4C[C@H](N)C[C@H](N)C4)nc(N4CC[C@H](O)[C@@H]4CN)n3)ccc12` [7-[4-((2S,3S)-2-Aminomethyl-3-hydroxy-pyrrolidin-1-yl)-6-((3R,5S)-3,5-diamino-piperidin-1-yl)-[1,3,5]triazin-2-ylamino]-4-methyl-chromen-2-one] was over 64 µg/mL.

Turning to `N[C@@H]1C[C@H](N)CN(c2nc(Nc3ccc(NC(=O)c4ccc5ccccc5c4)c(O)c3)nc(N3C[C@H](N)C[C@H](N)C3)n2)C1` [N-{3-hydroxy-4-[(naphthalene-2-carbonyl)-amino]-phenyl}-4,6-Bis-((3R,5S)-3,5-diamino-piperidin-1-yl)-[1,3,5]triazine-2-amine], the MIC is under 64 µg/mL. Consider `Cc1cc(NC(=O)c2ccccc2)c(Cl)cc1Nc1nc(N2CCCCC2)nc(N2CCCCC2)n1` [N-(4-benzoylamino-5-chloro-23-methyl-phenyl)-4,6-Bis((3R,5S)-3,5-diamino-piperidin-1-yl)-[1,3,5]triazine-2-amine], for which the MIC was over 64 µg/mL. As to `Cl.NC1C[C@@H](N)CN(c2nc(Nc3ccc(O)cc3[N+](=O)[O-])nc(N3C[C@H](N)C[C@H](N)C3)n2)C1` (stereo in doubt) [N-(4-hydroxy-2-nitro-phenyl)-4,6-Bis-((3R,5S)-3,5-diamino-piperidin-1-yl)-[1,3,5]triazine-2-amine], the MIC is over 64 µg/mL. Same read-out and setting: the result for `N[C@@H]1C[C@H](N)CN(c2nc(Nc3ccc4ccc5cccc6ccc3c4c56)nc(N3C[C@H](N)C[C@H](N)C3)n2)C1` [N-pyren-1-yl-4,6-Bis-((3R,5S)-3,5-diamino-piperidin-1-yl)-[1,3,5]triazine-2-amine] reads under 16 µg/mL.

The same test, now with this note: Escherichia coli, 18 h, read-out: Potency (MIC).
Consider `COc1nc(Nc2ccc(NC(=O)c3ccc(Cl)cc3)c(O)c2)nc(N2C[C@H](N)C[C@H](N)C2)n1` [4-Chloro-N-{4-[4-((3R,5S)-3,5-diamino-piperidin-1-yl)-6-methoxy-[1,3,5]triazin-2-ylamino]-2-hydroxy-phenyl}-benzamide], for which the MIC was under 16 µg/mL.

As for `N[C@@H]1C[C@H](N)CN(c2nc(Nc3ccc(C(=O)CC(=O)Nc4cc(C(F)(F)F)ccc4Cl)cc3)nc(N3C[C@H](N)C[C@H](N)C3)n2)C1` [N-{4-[2-(2-chloro-5-trifluoromethyl-phenylcarbamoyl)-acetyl]-phenyl}-4,6-Bis-((3R,5S)-3,5-diamino-piperidin-1-yl)-[1,3,5]triazine-2-amine], the MIC was under 16 µg/mL. With `COc1ccc(C(=O)Nc2ccc(Nc3nc(N4C[C@H](N)C[C@H](N)C4)nc(N4C[C@H](N)C[C@H](N)C4)n3)cc2O)c(O)c1OC` [N-[3-hydroxy-4-(2-hydroxy-3,4-dimethoxy-benzoylamino)-phenyl]-4,6-Bis-((3R,5S)-3,5-diamino-piperidin-1-yl)-[1,3,5]triazine-2-amine], the MIC is under 64 µg/mL. For `N[C@@H]1C[C@H](N)CN(c2nc(Nc3ccc(NC(=O)CO)cc3)nc(N3C[C@H](N)C[C@H](N)C3)n2)C1` [N-[4-(2-hydroxy-acetylamino)-phenyl]-4,6-Bis-((3R,5S)-3,5-diamino-piperidin-1-yl)-[1,3,5]triazine-2-amine], the MIC was over 64 µg/mL. Still for that read-out and setting: the value for `NCCN(CCN)c1nc(Nc2ccc3c(c2)-c2ccccc2C3=O)nc(N2C[C@H](N)C[C@H](N)C2)n1` [3-[4-[Bis(2-amino-ethyl)-amino]-6-((3R,5S)-3,5-diamino-piperidin-1-yl)-[1,3,5]triazin-2-ylamino]-fluoren-9-one] was over 64 µg/mL; that for `N[C@@H]1C[C@H](N)CN(c2nc(Nc3ccc(NC(=O)c4ccc(Cl)cc4)c(O)c3)nc(N3CCN(c4ccncc4)CC3)n2)C1` [4-Chloro-N-{4-[4-((3S,5R)-3,5-diamino-piperidin-1-yl)-6-(4-pyridin-4-yl-piperazin-1-yl)-[1,3,5]triazin-2-ylamino]-2-hydroxy-phenyl}-benzamide] was under 64 µg/mL; that for `N[C@@H]1C[C@H](N)CN(c2nc(Nc3ccc(NC(=O)c4ccc5ccccc5c4O)cc3)nc(N3C[C@H](N)C[C@H](N)C3)n2)C1` [N-{4-[(1-hydroxy-naphthalene-2-carbonyl)-amino]-phenyl}-4,6-Bis-((3R,5S)-3,5-diamino-piperidin-1-yl)-[1,3,5]triazine-2-amine] was under 16 µg/mL. Regarding `Cc1cc(O)c(C)c(O)c1C(=O)Nc1ccc(Nc2nc(N3C[C@H](N)C[C@H](N)C3)nc(N3C[C@H](N)C[C@H](N)C3)n2)cc1` [N-[4-(2,4-dihydroxy-3,6-dimethyl-benzoylamino)-phenyl]-4,6-Bis-((3R,5S)-3,5-diamino-piperidin-1-yl)-[1,3,5]triazine-2-amine], the MIC was under 16 µg/mL. Take `CC(=O)c1ccc(Nc2nc(N3C[C@H](N)C[C@H](N)C3)nc(N3C[C@@H](N)[C@@H](N)C3)n2)cc1` [1-{4-[4-((3R,5S)-3,5-Diamino-piperidin-1-yl)-6-((3R,4S)-3,4-diamino-pyrrolidin-1-yl)-[1,3,5]triazin-2-ylamino]-phenyl}-ethanone]: the MIC was over 64 µg/mL. As for `N[C@@H]1C[C@H](N)CN(c2nc(Nc3ccc(NS(=O)(=O)c4cc(Cl)cc(Cl)c4O)c(O)c3)nc(N3C[C@H](N)C[C@H](N)C3)n2)C1` [N-[4-(3,5-dichloro-2-hydroxy-benzenesulfonylamino)-3-hydroxy-phenyl]-4,6-Bis-((3R,5S)-3,5-diamino-piperidin-1-yl)-[1,3,5]triazine-2-amine], the MIC is under 16 µg/mL. Consider `N[C@@H]1C[C@H](N)CN(c2nc(Nc3ccc(C(=O)NCc4ccc5c(c4)OCO5)c(O)c3)nc(N3C[C@H](N)C[C@H](N)C3)n2)C1` [N-{4-[(benzo[1,3]dioxol-5-ylmethyl)-carbamoyl]-3-hydroxy-phenyl}-4,6-Bis-((3R,5S)-3,5-diamino-piperidin-1-yl)-[1,3,5]triazine-2-amine], for which the MIC is under 64 µg/mL. On to `N[C@@H]1C[C@H](N)CN(c2nc(Nc3ccc(S(=O)(=O)c4ccc([N+](=O)[O-])cc4)cc3)nc(N3C[C@H](N)C[C@H](N)C3)n2)C1` [N-[4-(4-nitro-benzenesulfonyl)-phenyl]-4,6-Bis((3R,5S)-3,5-diamino-piperidin-1-yl)-[1,3,5]triazine-2-amine], for which the MIC was under 64 µg/mL. The same measure, in the same setting: the value for `N[C@@H]1C[C@H](N)CN(c2nc(Nc3ccc(C(=O)Nc4cc(Cl)c(O)c(Cl)c4)c(O)c3)nc(N3C[C@H](N)C[C@H](N)C3)n2)C1` [N-[4-(3,5-dichloro-4-hydroxy-phenylcarbamoyl)-3-hydroxy-phenyl]-4,6-Bis-((3R,5S)-3,5-diamino-piperidin-1-yl)-[1,3,5]triazine-2-amine] was under 64 µg/mL. `N[C@@H]1C[C@H](N)CN(c2nc(Nc3ccc(NC(=O)c4ccc(O)cc4O)cc3)nc(N3C[C@H](N)C[C@H](N)C3)n2)C1` [N-[4-(2,4-dihydroxy-benzoylamino)-phenyl]-4,6-Bis-((3R,5S)-3,5-diamino-piperidin-1-yl)-[1,3,5]triazine-2-amine]: the MIC was under 16 µg/mL.

Regarding `Cc1ccc(S(=O)(=O)N(Cc2ccccc2)c2ccc(Nc3nc(N4C[C@H](N)C[C@H](N)C4)nc(N4C[C@@H](N)[C@@H](N)C4)n3)cc2O)cc1` [N-Benzyl-N-{4-[4-((3R,5S)-3,5-diamino-piperidin-1-yl)-6-((3R,4S)-3,4-diamino-pyrrolidin-1-yl)-[1,3,5]triazin-2-ylamino]-2-hydroxy-phenyl}-4-methyl-benzenesulfonamide], the MIC is under 16 µg/mL. Regarding `N[C@@H]1C[C@H](N)CN(c2nc(Nc3ccc(C(=O)Nc4ccc(F)c(F)c4)c(O)c3)nc(N3C[C@H](N)C[C@H](N)C3)n2)C1` [N-[4-(3,4-difluoro-phenylcarbamoyl)-3-hydroxy-phenyl]-4,6-Bis-((3R,5S)-3,5-diamino-piperidin-1-yl)-[1,3,5]triazine-2-amine], the MIC is under 16 µg/mL. The same measure, in the same setting: the result for `Cc1cc(=O)oc2cc(Nc3nc(N4C[C@H](N)C[C@H](N)C4)nc(N4C[C@H](CN)C[C@H](CN)C4)n3)ccc12` [7-[4-((3S,5R)-3,5-Bis-(aminomethyl)-piperidin-1-yl)-6-((3R,5S)-3,5-diamino-piperidin-1-yl)-[1,3,5]triazin-2-ylamino]-4-methyl-chromen-2-one] reads over 64 µg/mL.

Still in this test, the particulars now being: MIC in E. coli or S. aureus; two-fold serial dilutions 64 to 0.5 μg/ml in duplicate; 18 hours of incubation at 35° C.
Take “7-[4-((2S,4S)-4-Amino-2-aminomethyl-pyrrolidin-11-yl)-6-((3R,5S)-3,5-diamino-piperidin-1-yl)-[1,3,5]triazin-2-ylamino]-4-methyl-chromen-2-one”: the “Potency (MIC)” value is “− (− means MIC>64 μg/ml in E. coli or S. aureus)”.
